Experimental data from ChEMBL document CHEMBL5576113, “A method for estimation of plasma protein binding using diffusion ordered NMR spectroscopy (DOSY)” (RSC Med Chem, 2024).

Columns and labels:
Albumin [1] = molecular target: T1, Albumin (Bos taurus, UniProt P02769); assay: Plasma protein binding in bovine serum albumin assessed as fraction bound at 10:1 ratio of compound and BSA by 1H DOSY NMR spectrophotometric analysis; assay type: ADME; conditions: cattle, read-out: PPB (converted)
Albumin [2] = molecular target: T1, Albumin; assay: Plasma protein binding in bovine serum albumin assessed as fraction bound at 20:1 ratio of compound and BSA by 1H DOSY NMR spectrophotometric analysis; assay type: ADME; conditions: cattle, read-out: PPB (converted)
Albumin [3] = molecular target: T1, Albumin; assay: Plasma protein binding in bovine serum albumin assessed as fraction bound at 5:1 ratio of compound and BSA by 1H DOSY NMR spectrophotometric analysis; assay type: ADME; conditions: cattle, read-out: PPB (converted)
Albumin [4] = molecular target: Albumin (Homo sapiens, UniProt P02768); assay: Plasma protein binding in human albumin at 1 to 20 ug/ml incubated for 30 mins; assay type: ADME; conditions: at 1 to 20 µg/mL, dose 1-20 µg/ml, read-out: PPB (converted)
Sequence of Albumin (Homo sapiens, UniProt P02768) (P02768 whole entry): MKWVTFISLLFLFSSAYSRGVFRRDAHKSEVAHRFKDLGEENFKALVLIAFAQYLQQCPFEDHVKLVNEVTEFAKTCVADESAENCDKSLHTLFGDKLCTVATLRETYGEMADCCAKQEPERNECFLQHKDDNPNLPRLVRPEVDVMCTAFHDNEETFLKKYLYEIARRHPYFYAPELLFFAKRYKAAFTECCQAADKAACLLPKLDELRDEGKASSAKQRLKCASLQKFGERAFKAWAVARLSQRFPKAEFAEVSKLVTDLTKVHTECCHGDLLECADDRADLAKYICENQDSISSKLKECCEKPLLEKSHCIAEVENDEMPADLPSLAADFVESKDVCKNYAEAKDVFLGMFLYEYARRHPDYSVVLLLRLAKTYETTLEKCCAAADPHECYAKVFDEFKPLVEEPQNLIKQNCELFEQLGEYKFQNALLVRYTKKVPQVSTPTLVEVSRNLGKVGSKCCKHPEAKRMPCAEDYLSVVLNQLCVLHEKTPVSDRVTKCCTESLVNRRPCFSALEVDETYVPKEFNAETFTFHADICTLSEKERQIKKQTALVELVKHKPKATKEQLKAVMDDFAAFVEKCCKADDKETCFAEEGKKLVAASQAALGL

[5] = Plasma protein binding in human plasma incubated for 18 hrs by equilibrium dialysis

T1 sequence (P02769 whole entry): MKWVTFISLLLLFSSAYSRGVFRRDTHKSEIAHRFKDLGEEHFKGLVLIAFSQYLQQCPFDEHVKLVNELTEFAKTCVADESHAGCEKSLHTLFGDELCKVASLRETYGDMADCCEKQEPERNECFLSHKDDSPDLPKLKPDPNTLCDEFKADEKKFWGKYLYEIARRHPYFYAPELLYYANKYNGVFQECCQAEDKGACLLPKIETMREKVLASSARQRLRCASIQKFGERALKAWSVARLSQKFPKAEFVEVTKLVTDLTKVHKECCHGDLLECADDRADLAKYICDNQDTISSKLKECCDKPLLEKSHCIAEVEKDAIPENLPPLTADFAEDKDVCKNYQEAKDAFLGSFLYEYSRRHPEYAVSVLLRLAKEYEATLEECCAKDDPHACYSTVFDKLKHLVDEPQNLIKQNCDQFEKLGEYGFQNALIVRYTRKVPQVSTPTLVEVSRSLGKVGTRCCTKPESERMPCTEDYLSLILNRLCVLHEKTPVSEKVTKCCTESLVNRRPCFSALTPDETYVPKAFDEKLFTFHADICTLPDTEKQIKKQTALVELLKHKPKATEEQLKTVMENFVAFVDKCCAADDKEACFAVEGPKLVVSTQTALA

| fraction unbound (Albumin [1]) | fraction unbound (Albumin [2]) | fraction unbound (Albumin [3]) | fraction unbound at 0.5 h (Albumin [4]) | Structure (SMILES) | fraction unbound at 18 h [5] |
| --- | --- | --- | --- | --- | --- |
| 0.02 | 0.04 |  |  | COc1ccc2nc([S@@+]([O-])Cc3ncc(C)c(OC)c3C)[nH]c2c1 [ESOMEPRAZOLE] |  |
| 0.67 | 0.71 | 0.27 | 0.625 | Cn1c(=O)c2c(ncn2C)n(C)c1=O [CAFFEINE] |  |
| 0.16 | 0.48 | 0.1 |  | CC(=O)Oc1ccccc1C(=O)O [ASPIRIN] |  |
| 0.46 | 0.71 | 0.26 |  | N[C@H]1C(O)O[C@H](CO)[C@@H](O)[C@@H]1O (some centres not stated) [GLUCOSAMINE] |  |
| 0.25 | 0.36 | 0.11 |  | OC[C@H]1OC(O)[C@H](O)[C@@H]1O (some centres not stated) |  |

| Structure (SMILES) | fraction unbound (Albumin [1]) | fraction unbound (Albumin [2]) | fraction unbound (Albumin [3]) | fraction unbound at 0.5 h (Albumin [4]) | fraction unbound at 18 h [5] |
| --- | --- | --- | --- | --- | --- |
| CC(C)NCC(O)COc1cccc2ccccc12 (configuration not stated) [PROPRANOLOL] | 0.41 | 0.49 | 0.21 |  | 0.14 |
| CN/C(=N/CCSCc1nc[nH]c1C)NC#N [CIMETIDINE] | 0.66 | 0.74 | 0.42 |  |  |
